From US4948813A, “Benzylketone phospholipase A2 inhibitors” (E. I. Du Pont de Nemours and Company, priority 1989, dated 1990)
Structures can show the parent of a compound that is named as a salt.

System: inflammation induced by tetradecanoyl phorbol acetate (TPA)
Test: TPA Inflammation Inhibition Test
Type: in vivo, mice
Conditions: mouse ear edema, topical, 100 mg/ear, four hours
Protocol: The TPA model mimics many of the inflammatory change which occur in human skin diseases such as psoriasis, since elevated levels of inflammatory arachidonic acid metabolites are found and an influx of polymorphonuclear leukocytes is observed. The test procedure used to evaluate the compounds of Formula (I) is as follows: the test compound (100 mg/ear) is applied to both ears of mice in an appropriate vehicle, such as acetone, and then the inflammatory stimulus (TPA) is applied to the right ear. Four hours later, the edema is measured by removing standard size discs from the ears using a biopsy punch. A control group of animals receives TPA in vehicle applied to the right ear, and vehicle alone to the left ear.

## COc1ccc(CNCCC(=O)c2ccc(F)cc2)c2ccccc12 [Example 7, 1-(4-Fluorophenyl)-3-[(4-methoxy-1-naphthaIenyl)-methylamino]-1-propanone Hydrochloride]
  % Inhibition of Control Swelling: 21%

## CC(C)c1ccc2c(c1)CCC1C(C)(CNCCC(=O)c3ccccc3)CCCC21C (stereo not shown) [Example 21, 1-Phenyl-3-([4a-dimethyl-7-(1-methylethyl)-1,2,3,4,4a,9,10,10aoctahydro-1-phenanthren-1-yl]-methylamino)-1-propanone 4-Methylbenzenesulfonate]
  % Inhibition of Control Swelling: 31%

## CCCCCCC(C)OCCCC(=O)c1ccc(F)cc1 (stereo not drawn) [Example 37, 1-(4-Fluorophenyl)-4-(d-1-methylheptyloxy)-1-butanone]
  % Inhibition of Control Swelling: 20%

## CC(C)c1ccc2c(c1)CCC1C(C)(CNCCC(=O)c3ccc(F)cc3)CCCC21C.Cl (stereo not shown) [Example 52, 3-([1,4a-Dimethyl-1,2,3,4,4a,9,10,10a-octahydro-7-(1-methylethyl)-1-phenanthrenyl]methylamino)-1-(4-fluorophenyl)-1-propanone Hydrochloride]
  % Inhibition of Control Swelling: 40%
